Results reported in patent US10272261B2, “Methods and compositions for treating ocular glaucoma” (Massachusetts Eye and Ear Infirmary, priority 2004, dated 2019).

What was measured:
Format in all cases: in vivo, mouse
ciliary body [1] = assay: TUNEL staining after PDT in DBA/2J mice; details: 1.0 mg/kg, 180 degrees; 1 day after PDT
Procedure: (§1) Lectin labeling of vascular endothelial cells and TUNEL staining (to examine apoptotic cells) was performed 1 day after PDT in C57BL16 normal mice (n=2). In DBA/2J mice, only TUNEL staining was performed. PDT was performed to cover 180 degrees of the ciliary body at a dose of 4.0 mg/kg (C57BL/6) and 1.0 mg/kg (DBA/2J) verteporfin to compare the degree of staining between irradiated area and non-irradiated area. Non-operated fellow eyes (n=2) were used as controls. After sufficient anesthesia, the animals were perfused with 8 mL phosphate buffered saline (PBS) administered via a catheter in the left ventricle. After PBS perfusion, fluorescein-isothiocyanate (FITC)-coupled Concanavalin A lectin (20 μg/mL in PBS, pH 7.4, 5 mg/kg BW)(Vector Labs, Burlingame, Calif.) was then perfused to stain vascular endothelial cells. Four percent paraformaldehyde in 0.1 PBS (pH 7.4) was perfused following PBS perfusion to remove residual unbound lectin. Enucleated eyes were fixed in 4% paraformaldehyde in 0.1 PBS overnight and were immersed in graded sucrose in 0.1 PBS. The samples were embedded in optimal cutting temperature (OCT) compound (Tissue-Tek, Tokyo, Japan), and sectioned vertically at 10-μm. TUNEL staining was performed according to the manufacturer's protocol (Fluorescein In Situ Apoptosis Detection Kit; CHEMICON International, Temecula, Calif.) to detect retinal cell death induced by PDT. […]

DBA/2J mice = assay: Ocular complications of ciliary body PDT in DBA/2J mice (preliminary and changed parameters)
ciliary body [2] = assay: Lectin labeling of vascular endothelial cells and TUNEL staining after PDT in C57BL/6 normal mice; details: 4.0 mg/kg, 180 degrees; 1 day after PDT
Procedure: as §1

ciliary body [3] = assay: Histology (light and electron microscopy) of ciliary body after PDT in DBA/2J mice; details: 1.0 mg/kg
Procedure: Eyes were enucleated at 6 hours (only DBA/2J), at 1 and 7 days after treatment, and at the end of IOP follow up (8 weeks after treatment)(n=2 in each group at each time point) and processed for light and transmission electron microscopic examination. The eyes were bisected behind the limbus, placed in modified Karnovsky's fixative at 4° C. overnight, and then transferred to 0.1 M cacodylate buffer at pH 7.4. Ciliary body specimens were observed by stereomicroscopy at 1 day after PDT for normal mice in the 4.0 mg/kg dose-treated group. Tissues were postfixed in aqueous 2% osmium tetroxide, stained en bloc with Uranyl Acetate, dehydrated in graded ethanols, and embedded in Epon. One-micrometer-thick sections were stained with 0.5% toluidine blue in borate buffer for light microscopy and examined using a photomicroscope (Leica Microsystems, Wetzlar, Germany). Thin sections were stained with aqueous uranyl acetate, and Sato's lead stain, and examined with a transmission electron microscope (CM 10; Phillips, Eindhoven, The Netherlands).

DBA/2J glaucoma mice = assay: IOP measurement (applanation tonometer) after transscleral ciliary body PDT in DBA/2J glaucoma mice
Procedure: All experiments were performed in accordance with the Association for Research in Vision and Ophthalmology Statement for the Use of Animals in Ophthalmic and Vision Research. C57BL/6 female mice aged 3 months (n=20) were used as the normal model. DBA/2J female mice aged 8 months (n=20) were used as the glaucoma mouse model. One eye of each animal was treated and the other eye served as a control (for both the normal and glaucoma models). Animals were housed in covered cages, were fed with a standard rodent diet ad libitum and were kept under constant 12 hour light-12 hour dark cycles. For general anesthesia, a mixture of ketamine (100 mg/kg) and xylazine (9 mg/kg) was administered intraperitoneally.
DBA/2J mice spontaneously develop essential iris atrophy, pigment dispersion, and glaucomatous changes. The IOP becomes elevated in most mice by the age of 9 months, which can be followed by ganglion cell loss, optic nerve atrophy and optic nerve cupping. As glaucoma developed, ganglion cell loss and mild cupping of the optic nerve were present in some animals by 11 months and in the majority of mice by the age of 22 months.
Verteporfin photosensitizer (Novartis Ophthalmics, Inc., Duluth, Ga.) was used in these experiments. The mice were systemically anesthetized prior to PDT, and the photosensitizer dye was administered to the animals by tail vain injections using a 30 G needle 5 minutes before laser irradiation. A dose of 2.0 or 4.0 mg/kg was used in C57BL/6 normal mice and of 1.0 mg/kg was used in DBA/2J mice. The laser irradiation to the ciliary body was applied transsclerally using a 600 μm optical fiber at a wavelength of light of 689 nm from a Diode Laser, with an irradiance of 1800 mW/cm^2 and a fluence of 100 J/cm^2 (Lumenis, Santa Clara, Calif.). Transscleral irradiation of the ciliary body was performed with applications for 360 degrees of the corneoscleral limbus in C57BL/6 normal mice and for 180 degrees in DBA/2J mice. In the C57BL/6 and DBA/2J mice, 16 and 8 spots, respectively, were irradiated to overlap with one another. In the eyes prepared for lectin labeling and terminal deoxynucleotide transferase-mediated nick end labeling (TUNEL) staining (a measure of apoptosis), PDT was performed in C57BL/6 mice to cover 180 degrees of the ciliary body at a 4.0 mg/kg verteporfin dose to compare the degree of staining between irradiated area and non-irradiated area. Retreatment was performed in C57BL/6 normal mice which had been treated with 2.0 mg/kg of verteporfin after the IOP measurement at post-PDT day 7 using the same light parameters.
The IOP was measured using a previously reported applanation tonometer (Ahamed et al. (2003) IOVS 44:ARVO E-Abstract 3336) (n=12 in DBA/2J mice, n=5 in C57BL/6 mice at each dose). The principle of applanation tonometry employs fiber-optic gauges which are designed around a Fabry-Perot interferometer (FPI) (FTI-10; FISO Technologies, Inc., Quebec, Canada). FPI consists of two mirrors facing each other, the space separating the mirrors being called the cavity length. Light reflected in the FPI is wavelength-modulated in exact accordance with the cavity length. […]
IOP was measured under general anesthesia. […]
As soon as the mice were anesthetized sufficiently, they were placed on a surgical platform. When the pressure sensor applanated a central area of mouse cornea under a dissecting microscope, the IOP (psi) was measured by the device 10 times automatically. […]

verteporfin was tested, and the “TUNEL positive (apoptotic) cells” value (ciliary body [1]) was “Many TUNEL positive cells were seen in the ciliary process in both the treated and untreated sides of the treated eye”, the ocular complications (DBA/2J mice; 2 mg/kg, irradiated in 360 degrees of the corneoscleral limbus (preliminary)) was “severe damage such as corneal edema, hyphema, and corneal neovascularization occurred with high frequency” and the ocular complications (DBA/2J mice; after change of parameters (1.0 mg/kg, 180 degrees)) was “these complications were not seen”. The “TUNEL positive (apoptotic) cells” value (ciliary body [2]) was “some TUNEL positive cells in the ciliary body and retina of the PDT treated eyes”, the “lectin staining of ciliary body vessels on the treated side” value (ciliary body [2]) was “showed little staining with lectin” and the “ciliary body histological findings” value (ciliary body [3]; 8 weeks after PDT) was “ciliary body blood vessels were recanalized, and edema had disappeared”. The “ciliary body histological findings” value (ciliary body [3]; 6 hours after PDT) was “most ciliary body blood vessels in the treated eyes were thrombosed”, the “ciliary body histological findings” value (ciliary body [3]; 1 day after PDT) was “most ciliary body blood vessels were still thrombosed, and the ciliary epithelium and stroma were severely damaged and edematous” and the “ciliary body histological findings” value (ciliary body [3]; 7 days after PDT) was “Some of ciliary body blood vessels were still thrombosed”. For the same substance, the “mean IOP of treated eyes” value (DBA/2J glaucoma mice; 1.0 mg/kg i.v., 689 nm, 100 J/cm^2, 180 degrees, 1 day after treatment) was 15.9±5.7 mmHg, the “difference of mean IOP between fellow control eyes and treated eyes” value (DBA/2J glaucoma mice; 1.0 mg/kg, 180 degrees, 1 day after PDT) was “no significant difference” and the “mean IOP of treated eyes” value (DBA/2J glaucoma mice; 1.0 mg/kg, 180 degrees, 3 days after PDT) was 9.5±3.4 mmHg. For the same substance, the “reduction of mean IOP of treated eyes compared to fellow control eyes” value (DBA/2J glaucoma mice; 1.0 mg/kg, 180 degrees, 3 days after PDT, p<0.05) was 40.8% and the IOP reduction (DBA/2J glaucoma mice; 1.0 mg/kg, treatment of 180°) was “significant reduction of IOP”.
